Experiment: Inhibition of recombinant human Inositol 3,4,5,6 tetrakisphosphate 1-kinase using [3H]Ins(3,4,5,6)[…] as substrate

O=P(O)(O)O[C@@H]1[C@@H](O)[C@H](O)[C@@H](OP(=O)(O)O)[C@@H](OP(=O)(O)O)[C@H]1O
IC50: ≥ 300 µM

O=P(O)(O)O[C@H]1[C@H](O)[C@@H](O)[C@H](OP(=O)(O)O)[C@H](OP(=O)(O)O)[C@@H]1O
IC50: ~9 µM

O=P(O)(O)O[C@H]1[C@H](O)[C@@H](O)[C@H](OP(=O)(O)O)[C@@H](OP(=O)(O)O)[C@H]1O
IC50: ~4 µM

— ChEMBL document CHEMBL1133807, “Regiospecific phosphohydrolases from Dictyostelium as tools for the chemoenzymatic synthesis of the enantiomers D-myo-inositol 1,2,4-trisphosphate and D-myo-inositol 2,3,6-trisphosphate: non-physiological, potential analogues of biologically active D-myo-inositol 1,3,4-trisphosphate” (Bioorg Med Chem Lett, 2001)
